Laboratory results taken from PubChem BioAssay AID624344 (Sanford-Burnham Center for Chemical Genomics, 2012).
The source made the active and inactive calls. The rule behind the calls is not given here.

Assays:
Cytotoxicity = assay: inhibitors of PAF-induced NFkB signaling in CF airway cells, dose response, cell-based, uHTS hits, panel, cytotoxicity readout (AID 624344); details: CF bronchial epithelial cells, mean of runs
[1] = as above; details: CF bronchial epithelial cells, PAF-induced NFkB reporter inhibition; with PAF, mean of runs

SMILES: COc1ccccc1Cn1c(=O)c2ccccc2n2c(Sc3ncnc4sccc34)nnc12
- IC50 (Cytotoxicity): 5.9 µM
- IC50 [1]: 3.9 µM

SMILES: COC(=O)N1C(=O)[C@@](c2ccc(OC)cc2)(C(C)C)N1C(=O)OC
- IC50 (Cytotoxicity): 49.1 µM
- IC50 [1]: 4.72 µM

SMILES: COc1cccc(NC(=O)Nc2nnc(CC(=O)NCc3ccccc3)s2)c1
- IC50 (Cytotoxicity): 52.3 µM (inactive)
- IC50 [1]: 5.09 µM

SMILES: O=C(NCCc1ccc(F)cc1)c1coc(=O)c(Br)c1
- IC50 (Cytotoxicity): 21.2 µM
- IC50 [1]: 4.34 µM

SMILES: O=C(Oc1ccc(F)cc1C(=O)/C=C/c1cccs1)c1cccc([N+](=O)[O-])c1
- IC50 (Cytotoxicity): > 79 µM (inactive)
- IC50 [1]: inactive

SMILES: COc1ccc(COc2cc(-c3cccc(OC)c3)nc3ccc(NC(=O)c4cccnc4)cc23)cc1
- IC50 (Cytotoxicity): 11.5 µM
- IC50 [1]: 4.27 µM

SMILES: Cc1ccc(S(=O)(=O)/N=C(\CCl)N2CCOCC2)cc1
- IC50 (Cytotoxicity): 9.62 µM
- IC50 [1]: 2.38 µM

SMILES: COc1ccc(-c2cn[nH]c2-c2ccc(OCc3ccc([N+](=O)[O-])cc3)cc2O)cc1
- IC50 (Cytotoxicity): 31.8 µM
- IC50 [1]: 4.72 µM

SMILES: Cc1cccc(CS(=O)(=O)c2ncc(Cl)c(C(=O)NCc3ccccc3)n2)c1
- IC50 (Cytotoxicity): 2.27 µM
- IC50 [1]: 2.47 µM

SMILES: COc1ccc(-c2cc(NC=O)c3ncc(-c4cc(OC)c(OC)c(OC)c4)n3c2)cc1
- IC50 (Cytotoxicity): 28.9 µM
- IC50 [1]: > 79 µM (inactive)

SMILES: COc1ccc(C(c2nnnn2-c2ccc(OC)cc2)N2CCC(n3c(=O)[nH]c4ccccc43)CC2)cc1 (stereo unspecified)
- IC50 (Cytotoxicity): 11.7 µM
- IC50 [1]: 5.8 µM

SMILES: COc1cccc2sc(N(CCCN(C)C)C(=O)CCS(=O)(=O)c3ccccc3)nc12
- IC50 (Cytotoxicity): 4.84 µM
- IC50 [1]: 2.34 µM

SMILES: CC(=O)OC1CCC2(C)C(CCC3C4CC=C(C(C)=O)C4(C)OC(=O)CC32)C1 (stereo unspecified)
- IC50 (Cytotoxicity): 5.07 µM
- IC50 [1]: 0.972 µM

SMILES: COc1ccc2[nH]c3c(c2c1)CC(C)NC3=O (stereo unspecified)
- IC50 (Cytotoxicity): 55.3 µM (inactive)
- IC50 [1]: 1.3 µM

SMILES: N#CC(C#N)=C1SC(=Nc2ccccc2)C(=Nc2ccccc2)N1c1ccccc1
- IC50 (Cytotoxicity): 12.4 µM
- IC50 [1]: 8.12 µM

SMILES: CCOc1ccc(C(C(=O)NCC2CCCO2)N(Cc2cccs2)C(=O)c2snc(C(N)=O)c2N)cc1 (stereo unspecified)
- IC50 (Cytotoxicity): > 79 µM (inactive)
- IC50 [1]: 3.47 µM

SMILES: COc1ccc(-c2oc3ccc(-c4ccc(OC)nc4)cc3c2C#CC2(O)CCCCC2)cc1
- IC50 (Cytotoxicity): 14.4 µM
- IC50 [1]: 6.05 µM

SMILES: COc1ccc(-c2cn[nH]c2-c2ccc(OC)cc2)cc1
- IC50 (Cytotoxicity): 63.5 µM (inactive)
- IC50 [1]: 2.53 µM

SMILES: CC(=O)Oc1c(Br)cc(N(C(C)=O)S(=O)(=O)c2ccccc2)c2ccccc12
- IC50 (Cytotoxicity): 9.15 µM
- IC50 [1]: 7.32 µM

SMILES: C/C(=N\Nc1cc(N2CCOCC2)ncn1)c1cccc([N+](=O)[O-])c1
- IC50 (Cytotoxicity): 14.4 µM
- IC50 [1]: 4.21 µM

SMILES: CN1CCN(c2ncnc3scc(-c4ccccc4Cl)c23)CC1
- IC50 (Cytotoxicity): 57.2 µM (inactive)
- IC50 [1]: 3.89 µM

SMILES: CCOC(=O)c1c(-c2ccc(C)cc2)csc1NC(=O)c1ccc(N2C(=O)CCC2=O)cc1
- IC50 (Cytotoxicity): 61 µM (inactive)
- IC50 [1]: inactive

SMILES: COC(=O)c1c(C)n(-c2ccc(OC)cc2)c2ccc(O)cc12
- IC50 (Cytotoxicity): 42.2 µM
- IC50 [1]: 2.37 µM

SMILES: C=CC[C@@H](CC(=O)N(CCO)Cc1ccccc1)C(=O)NC[C@H](OC(=O)[C@@H](CC=C)Cc1ccc(F)cc1)c1ccccc1
- IC50 (Cytotoxicity): 4.23 µM
- IC50 [1]: 4.05 µM

SMILES: Cc1cccc(N(Cc2cc(=O)[nH]c3ccccc23)C(=O)CCl)c1
- IC50 (Cytotoxicity): 2 µM
- IC50 [1]: 1.23 µM

SMILES: Nc1nc(N)nc(-c2cc([N+](=O)[O-])ccc2O)n1
- IC50 (Cytotoxicity): > 79 µM (inactive)
- IC50 [1]: 8.82 µM

SMILES: O=C1NC(=S)N/C1=C\c1cccnc1
- IC50 (Cytotoxicity): > 79 µM (inactive)
- IC50 [1]: 5.71 µM

SMILES: CN(C)CCCN(C(=O)CCOc1ccccc1)c1nc2c(F)cccc2s1
- IC50 (Cytotoxicity): 24.6 µM
- IC50 [1]: 5.63 µM

SMILES: Cc1ccnc(NC(=O)CCCOc2cc(=O)n(C)c3ccccc23)c1
- IC50 (Cytotoxicity): 62.3 µM (inactive)
- IC50 [1]: 11.2 µM

SMILES: C=CCn1c(Oc2ccccc2F)nc2c1c(=O)n(C)c(=O)n2C
- IC50 (Cytotoxicity): > 79 µM (inactive)
- IC50 [1]: 5.7 µM

SMILES: CC(C)(C)OC(=O)NCCCCCNC(=O)c1nc[nH]c1C(=O)NCC(=O)OCc1ccccc1
- IC50 (Cytotoxicity): 9.6 µM
- IC50 [1]: 3.56 µM

SMILES: CCOC(=O)c1c(C)[nH]c(C(=O)N/N=C/c2ccc(Br)cc2)c1C
- IC50 (Cytotoxicity): 45.9 µM
- IC50 [1]: 14.6 µM

SMILES: O=C(Nc1nnc(C(F)(F)F)s1)c1ccc(Br)s1
- IC50 (Cytotoxicity): 27.8 µM
- IC50 [1]: 2.28 µM

SMILES: CCCCCCc1cc2cc(C(=O)OCC)c(=O)oc2cc1O
- IC50 (Cytotoxicity): 20.2 µM
- IC50 [1]: 7.22 µM

SMILES: COc1ccc(-n2nnnc2C(CCc2ccccc2)N2CCC(n3c(=O)[nH]c4ccccc43)CC2)cc1 (stereo unspecified)
- IC50 (Cytotoxicity): 11.1 µM
- IC50 [1]: 6.25 µM

SMILES: CC1(C)CC(=O)C(C2C3=C(CC(C)(C)CC3=O)Oc3c(Br)cc(Br)cc32)=C(O)C1 (stereo unspecified)
- IC50 (Cytotoxicity): 15.1 µM
- IC50 [1]: 6.19 µM

SMILES: CCOC(=O)C1=C(C)Nc2ccccc2N=C1NC(=O)c1oc2ccccc2c1COC
- IC50 (Cytotoxicity): 30.1 µM
- IC50 [1]: 4.25 µM

SMILES: COc1cc(O)c(CC=C(C)C)c(O)c1C(=O)CCc1ccc(O)cc1
- IC50 (Cytotoxicity): 41.5 µM
- IC50 [1]: 5 µM

SMILES: CCCCn1nnnc1C(CCc1ccccc1)N1CCC(n2c(=O)[nH]c3ccccc32)CC1 (stereo unspecified)
- IC50 (Cytotoxicity): 12 µM
- IC50 [1]: 5.91 µM

SMILES: CCN(CC)CCNC(=O)c1ccc(NC(=O)C2CCN(c3ncnc4sc(C)c(C)c34)CC2)cc1
- IC50 (Cytotoxicity): 16.1 µM
- IC50 [1]: 6.33 µM

SMILES: CCc1ccc(Nc2n[n+](-c3ccccc3)c(-c3c(Cl)cccc3Cl)s2)cc1
- IC50 (Cytotoxicity): 6.29 µM
- IC50 [1]: 5.47 µM

SMILES: C/C(=N/NC(=O)c1cccs1)c1ccc(NC(=O)COc2ccc(Cl)cc2)cc1
- IC50 (Cytotoxicity): 26.5 µM
- IC50 [1]: inactive

SMILES: O=C(NCc1ccco1)c1nc2c(nnn2Cc2ccccc2Cl)c(=O)[nH]1
- IC50 (Cytotoxicity): 5.1 µM
- IC50 [1]: 1.46 µM

SMILES: COc1cc(CCc2ccccc2)c(C(=O)O)c(O)c1C/C=C(/C)CCC=C(C)C
- IC50 (Cytotoxicity): 14.7 µM
- IC50 [1]: 6.26 µM

SMILES: CC(C)(C)S(=O)N1Cc2cc(C(=O)NCC(F)(F)F)nc(-c3cccc(-c4cccc(F)c4)c3)c2[C@@H]1CCO (stereo partly specified)
- IC50 (Cytotoxicity): 16 µM
- IC50 [1]: 5.86 µM

SMILES: Cc1ccc(NC(=O)Nc2cccc([N+](=O)[O-])c2)cc1F
- IC50 (Cytotoxicity): 3.58 µM
- IC50 [1]: 6.2 µM

SMILES: ON=C1c2ccccc2-c2cc(Br)ccc21
- IC50 (Cytotoxicity): 41.4 µM
- IC50 [1]: 1.87 µM

SMILES: Cc1c([N+](=O)[O-])c2ccc(O)cc2n1-c1ccccc1
- IC50 (Cytotoxicity): 26.2 µM
- IC50 [1]: 0.851 µM

SMILES: c1ccc2c(c1)Nc1ccncc1S2
- IC50 (Cytotoxicity): 44.1 µM
- IC50 [1]: 1.46 µM

SMILES: COc1ccc(-c2cc(=O)oc3cc(OC(=O)C4CCCCC4)c(Cl)cc23)cc1
- IC50 (Cytotoxicity): 61.6 µM (inactive)
- IC50 [1]: 0.302 µM

SMILES: COc1ccc(CNc2ncnc3ccccc23)cc1
- IC50 (Cytotoxicity): 59.5 µM (inactive)
- IC50 [1]: 15.3 µM

SMILES: CC(C)C[C@@H](CN1CCCC1CN1C(=S)NC[C@@H]1Cc1ccc(O)cc1)N1C[C@H](Cc2ccc(O)cc2)N(CC2CCCCCC2)C1=S (stereo partly specified)
- IC50 (Cytotoxicity): 25.2 µM
- IC50 [1]: 7.98 µM

SMILES: c1nc(NCc2ccc3c(c2)OCO3)c2cc(-c3ccoc3)ccc2n1
- IC50 (Cytotoxicity): 5.93 µM
- IC50 [1]: 0.34 µM

SMILES: COc1ccc2cc3c(N)nn(C(=O)Cc4ccccc4OC)c3nc2c1
- IC50 (Cytotoxicity): 47.4 µM
- IC50 [1]: 2.67 µM

SMILES: C[C@@H]1CC=C[C@H]2[C@H]1C(=O)N(Cc1ccccc1)[C@H]2c1ccc2ccccc2c1Br
- IC50 (Cytotoxicity): 12.9 µM
- IC50 [1]: 5.04 µM

SMILES: CC(=O)Oc1ccc(N(C(C)=O)S(=O)(=O)c2cccs2)c2ccccc12
- IC50 (Cytotoxicity): 11.7 µM
- IC50 [1]: 6.45 µM

SMILES: OCCCNc1ncnc2scc(-c3ccc(Cl)cc3)c12
- IC50 (Cytotoxicity): 32.6 µM
- IC50 [1]: 2.35 µM

SMILES: C=C1C(=O)[C@]23C[C@H]1CCC2[C@]1(C)C(=O)CC[C@@](C)(C(=O)O)C1C[C@@H]3O (stereo partly specified)
- IC50 (Cytotoxicity): 14.4 µM
- IC50 [1]: 0.96 µM
